From patent publication US8497276B2, “Substituted indolo-piperidine compounds” (ArQule, Inc., priority 2009, dated 2013)

How the values were obtained:
MDA-MB 231 = assay: MTS Assay (cell growth inhibition), MDA-MB 231; format: cell-based; settings: MDA-MB 231 cells, 72 hours with test compound; concentration not given
Description: (§1) Cells were maintained at 37° C., 5% CO2 in DMEM media supplemented with 1% fetal bovine serum, penicillin/streptomycin and fungizone (Invitrogen). Cells were seeded into 96-well tissue culture plates at 3000 per well and cultured at 37° C. for 18 hours. Test compounds were dissolved and diluted to 300× in DMSO then diluted 1:40 in DMEM. Cells were incubated with test compounds for 72 hours followed by incubation with tetrazolium compound (3-(4,5-dimethylthiazol-2-yl)-5-(3-carboxymethoxyphenyl)-2-(4-sulfophenyl)-2H-tetrazolium, inner salt; MTS) and the electron coupling reagent, phenazine methosulfate (PMS) for 4 hours. […] The ability of compounds to inhibit cell growth in this assay is correlated with the reduction of dehydrogenase enzyme activity found in metabolically active cells. The measurement of the absorbance of the formazan was assessed using an ENVISION™ (Perkin Elmer) microplate reader at 492 nm. The calculated IC50 value is the concentration of the test compound that causes a 50% decrease in the absorbance.

PC-3 = assay: MTS Assay (cell growth inhibition), PC-3; format: cell-based; settings: PC-3 cells, 72 hours with test compound; concentration not given
Description: as §1

Tec kinase = biological target: T1, Tec kinase (Homo sapiens, UniProt P42680); assay: Tec Kinase Activity Assay; format: biochemical; settings: 75 μM ATP, Pyk-2 substrate; compound concentration not given
T1 sequence (P42680 1-631): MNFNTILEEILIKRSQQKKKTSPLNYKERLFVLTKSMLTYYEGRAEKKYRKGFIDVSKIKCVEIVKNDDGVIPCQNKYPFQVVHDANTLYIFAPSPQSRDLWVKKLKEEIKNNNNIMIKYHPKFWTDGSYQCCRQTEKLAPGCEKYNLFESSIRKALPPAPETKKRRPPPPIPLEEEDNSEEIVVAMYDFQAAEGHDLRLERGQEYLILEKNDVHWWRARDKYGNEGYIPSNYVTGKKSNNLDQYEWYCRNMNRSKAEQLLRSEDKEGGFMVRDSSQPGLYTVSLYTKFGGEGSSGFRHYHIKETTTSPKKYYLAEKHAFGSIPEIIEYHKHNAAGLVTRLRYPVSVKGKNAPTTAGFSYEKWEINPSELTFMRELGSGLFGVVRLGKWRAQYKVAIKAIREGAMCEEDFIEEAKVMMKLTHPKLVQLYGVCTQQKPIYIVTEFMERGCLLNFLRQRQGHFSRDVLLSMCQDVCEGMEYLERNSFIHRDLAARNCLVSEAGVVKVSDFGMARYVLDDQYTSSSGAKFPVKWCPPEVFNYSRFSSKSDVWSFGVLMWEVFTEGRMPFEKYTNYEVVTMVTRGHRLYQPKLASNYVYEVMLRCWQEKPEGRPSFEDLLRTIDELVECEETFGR
Description: The disclosed compounds were assayed for their ability to inhibit the activity of Tec kinase. Nunc Maxisorb plates were coated with streptavidin by overnight incubation with 100 μl per well of 1 μg/ml Streptavidin in DPBS. Prior to the start of the experiment, the plates were washed with TBST (3×200 μl) and blocked for at least 1 hour by adding 150 μl of 5% BSA/TBST. The plates were then washed with TBST (3×200 μl/well) and left dry immediately before the capture step.
The disclosed test compounds and controls (Staurosporine and Sutent) were prepared using the following assay buffer (50 mM Tris-HCl, 0.02 mg/ml BSA, 10 mM MgCl2, 0.1 mM Na3VO4, 1 mM EGTA, 75 μM ATP, 0.01% NP-40, 2 mM DTT in 10% glycerol/water) at 3× desired final concentration. 20 μl of the test compounds (or control) and 20 μl TEC (0.25 ng/μl) were rapidly added to a reaction plate. The plate was incubated for 30 minutes. 20 μl of Pyk-2 (0.5 ng/μl) was then added to the reaction plate. The plate was incubated at room temperature for two hours.
50 μl was transferred from the reaction plate to the streptavidin coated plate. The capture plate was incubated at room temperature for 30 minutes then washed with TBST 6 times. 100 μl/well of Cell Signaling anti-phospho tyrosine was added to the capture plate at a dilution of 1:3000 in 2% BSA/TBST. The plate was incubated for one hour at room temperature then washed with TBST 6 times. 100 μl/well of alkaline phosphatase tagged goat anti-mouse antibody was added to the capture plate at a dilution of 1:4000 in 2% BSA/TBST. The plate was incubated for one hour at room temperature then washed with TBST 6 times.
The fluorescent readout was initiated by the addition of 100 μl/well of Attophos reagent (6 mg/10 ml) and the reading was done on the Perkin Elmer Envision system.

NCI-H1299 = assay: MTS Assay (cell growth inhibition), NCI-H1299; format: cell-based; settings: NCI-H1299 cells, 72 hours with test compound; concentration not given
Description: as §1

Kato III = assay: MTS Assay (cell growth inhibition), Kato III; format: cell-based; settings: Kato III cells, 72 hours with test compound; concentration not given
Description: as §1

DLD-1 = assay: MTS Assay (cell growth inhibition), DLD-1; format: cell-based; settings: DLD-1 cells, 72 hours with test compound; concentration not given
Description: as §1

PACA-2 = assay: MTS Assay (cell growth inhibition), PACA-2; format: cell-based; settings: PACA-2 cells, 72 hours with test compound; concentration not given
Description: as §1

| SMILES | MTS cell kill data (% inhibition) MDA-MB 231 (MDA-MB 231) | MTS cell kill data (% inhibition) PC-3 (PC-3) | Biochemical IC50 (% inhibition) Tec (Tec kinase) | MTS cell kill data (% inhibition) NCI-H1299 (NCI-H1299) | MTS cell kill data (% inhibition) Kato III (Kato III) | MTS cell kill data (% inhibition) DLD-1 (DLD-1) | MTS cell kill data (% inhibition) PACA-2 (PACA-2) |
| --- | --- | --- | --- | --- | --- | --- | --- |
| CC(C)c1ccc(C2c3[nH]c4ccccc4c3CCN2c2ncnc3[nH]ccc23)cc1 (stereo not drawn) [Compound 18, 1-(4-isopropylphenyl)-2-(7H-pyrrolo[2,3-d]pyrimidin-4-yl)-2,3,4,9-tetrahydro-1H-beta-carboline] | A (A = 80-100% inhibition) | C (C = <50% inhibition) | C (C = <50% inhibition) | A (A = 80-100% inhibition) | A (A = 80-100% inhibition) | A (A = 80-100% inhibition) | A (A = 80-100% inhibition) |
| COc1ccc(C2c3[nH]c4ccccc4c3CCN2c2ncnc3[nH]ncc23)cc1 (stereo not drawn) [Compound 31, 1-(4-methoxyphenyl)-2-(1H-pyrazolo[3,4-d]pyrimidin-4-yl)-2,3,4,9-tetrahydro-1H-beta-carboline] | B (B = 50-79% inhibition) | C (C = <50% inhibition) | B (B = 50-79% inhibition) | B (B = 50-79% inhibition) | B (B = 50-79% inhibition) | B (B = 50-79% inhibition) | B (B = 50-79% inhibition) |
| c1ccc(CC2c3[nH]c4ccccc4c3CCN2c2ncnc3[nH]cnc23)cc1 (stereo not drawn) [Compound 15, 1-benzyl-2-(9H-purin-6-yl)-2,3,4,9-tetrahydro-1H-beta-carboline] | A (A = 80-100% inhibition) | A (A = 80-100% inhibition) | C (C = <50% inhibition) | A (A = 80-100% inhibition) | B (B = 50-79% inhibition) | B (B = 50-79% inhibition) | C (C = <50% inhibition) |
| CC(C)c1ccc(C2c3[nH]c4ccccc4c3CCN2c2ncnc3[nH]ncc23)cc1 (stereo not drawn) [Compound 21, 1-(4-isopropylphenyl)-2-(1H-pyrazolo[3,4-d]pyrimidin-4-yl)-2,3,4,9-tetrahydro-1H-beta-carboline] | A (A = 80-100% inhibition) | B (B = 50-79% inhibition) | B (B = 50-79% inhibition) | A (A = 80-100% inhibition) | A (A = 80-100% inhibition) | A (A = 80-100% inhibition) | A (A = 80-100% inhibition) |
| c1ccc(C2c3[nH]c4ccccc4c3CCN2c2ncnc3[nH]cnc23)cc1 (stereo not drawn) [Compound 25, 1-phenyl-2-(9H-purin-6-yl)-2,3,4,9-tetrahydro-1H-beta-carboline] | C (C = <50% inhibition) | C (C = <50% inhibition) | C (C = <50% inhibition) | B (B = 50-79% inhibition) | B (B = 50-79% inhibition) | B (B = 50-79% inhibition) | B (B = 50-79% inhibition) |
| Fc1ccc(C2c3[nH]c4ccccc4c3CCN2c2ncnc3[nH]cnc23)cc1 (stereo not drawn) [Compound 5, 1-(4-fluorophenyl)-2-(9H-purin-6-yl)-2,3,4,9-tetrahydro-1H-beta-carboline] | A (A = 80-100% inhibition) | A (A = 80-100% inhibition) | C (C = <50% inhibition) | B (B = 50-79% inhibition) | A (A = 80-100% inhibition) | C (C = <50% inhibition) | C (C = <50% inhibition) |
| COc1ccc(C2c3[nH]c4ccccc4c3CCN2c2ncnc3[nH]ccc23)cc1OC (stereo not drawn) [Compound 22, 1-(3,4-dimethoxyphenyl)-2-(7H-pyrrolo[2,3-d]pyrimidin-4-yl)-2,3,4,9-tetrahydro-1H-beta-carboline] | C (C = <50% inhibition) | C (C = <50% inhibition) | C (C = <50% inhibition) | B (B = 50-79% inhibition) | B (B = 50-79% inhibition) | B (B = 50-79% inhibition) | B (B = 50-79% inhibition) |
| c1ccc(CC2c3[nH]c4ccccc4c3CCN2c2ncnc3[nH]ncc23)cc1 (stereo not drawn) [Compound 17, 1-benzyl-2-(1H-pyrazolo[3,4-d]pyrimidin-4-yl)-2,3,4,9-tetrahydro-1H-beta-carboline] | C (C = <50% inhibition) | C (C = <50% inhibition) | C (C = <50% inhibition) | B (B = 50-79% inhibition) | B (B = 50-79% inhibition) | B (B = 50-79% inhibition) | B (B = 50-79% inhibition) |
| COc1ccc(C2c3[nH]c4ccccc4c3CCN2c2ncnc3[nH]cnc23)cc1 (stereo not drawn) [Compound 29, 1-(4-methoxyphenyl)-2-(9H-purin-6-yl)-2,3,4,9-tetrahydro-1H-beta-carboline] | C (C = <50% inhibition) | C (C = <50% inhibition) | C (C = <50% inhibition) | B (B = 50-79% inhibition) | B (B = 50-79% inhibition) | B (B = 50-79% inhibition) | B (B = 50-79% inhibition) |
